Five compounds from patent US20230220021A1, “CYCLIC PEPTIDE INHIBITORS OF PSD-95 AND USES THEREOF” (University of Copenhagen, priority 2020, published 2023) can be followed below.

Molecules are shown by their SMILES. Where a SMILES comes first, the peptide text is derived from it. [ ]: non-standard residue; d: D form.

The target of one test is T1, PSD-95-PDZ2 (Homo sapiens, UniProt P78352).
T1 construct: 7xHis (N); made in house; host or cells: Escherichia coli B21 pLys (for the mutants, 'as previously described')
T1 sequence (P78352 160-246 limits assumed): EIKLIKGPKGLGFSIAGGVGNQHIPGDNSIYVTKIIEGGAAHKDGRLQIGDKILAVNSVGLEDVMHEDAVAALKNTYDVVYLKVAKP
Put plainly: Fluorescence polarization (FP) competition assay against cyclic nNOS TAMRA probe. The test is classed as binding. As to conditions: FP competition, cyclic nNOS TAMRA probe; mean of triplicates; N.B. = not binding; read-out: Ki.
As to `CC(C)C[C@@H]1NC(=O)[C@H](Cc2c[nH]cn2)NC(=O)[C@H]([C@@H](C)O)NC(=O)[C@H](CCC(N)=O)NC(=O)CNC(=O)[C@H]2CCCN2C(=O)[C@H](CCC(N)=O)NC(=O)[C@H]([C@@H](C)O)NC(=O)[C@H](C(C)C)NC(=O)[C@H](CCCNC(=N)N)NC(=O)[C@H](CCCNC(=N)N)NC(=O)[C@H]([C@@H](C)O)NC(=O)[C@H](CCCCN)NC(=O)[C@@H]2CCCN2C(=O)[C@H]([C@@H](C)O)NC(=O)CNC(=O)[C@H](CC(=O)O)NC(=O)CNC(=O)[C@H]([C@@H](C)O)NC(=O)[C@H](Cc2ccccc2)NC(=O)[C@H]([C@@H](C)O)NC(=O)[C@H]([C@@H](C)O)NC(=O)[C@H](CCC(=O)O)NC1=O` [compound 41] (cyclo(THLETTFTGDGTPKTRRVTQ[dP]GQ)), the Ki – broadly, the equilibrium dissociation constant of an inhibitor or competing ligand from its target – was determined as 1760 nM.

In the case of `CC[C@H](C)[C@@H]1NC(=O)[C@H]([C@@H](C)O)NC(=O)[C@H](CCCCN)NC(=O)[C@@H]2CCCN2C(=O)[C@H]([C@@H](C)O)NC(=O)CNC(=O)[C@H](CC(=O)O)NC(=O)CNC(=O)[C@H]([C@@H](C)O)NC(=O)[C@H](Cc2ccccc2)NC(=O)[C@H]([C@@H](C)O)NC(=O)[C@H]([C@@H](C)O)NC(=O)[C@H](CCC(=O)O)NC(=O)[C@H](CC(C)C)NC(=O)[C@H](Cc2c[nH]cn2)NC(=O)[C@H]([C@@H](C)O)NC(=O)[C@H](CCC(N)=O)NC(=O)CNC(=O)[C@H]2CCCN2C(=O)[C@H](CCC(N)=O)NC(=O)[C@H]([C@@H](C)O)NC(=O)[C@H](C(C)C)NC(=O)[C@H](CCCNC(=N)N)NC1=O` [SEQ ID NO: 433], the Ki came out at 1500 ± 200 nM.

With `CC[C@H](C)[C@@H]1NC(=O)[C@H]([C@@H](C)O)NC(=O)[C@H](CCCCN)NC(=O)[C@@H]2CCCN2C(=O)[C@H]([C@@H](C)O)NC(=O)CNC(=O)[C@H](CC(=O)O)NC(=O)CNC(=O)[C@H]([C@@H](C)O)NC(=O)[C@H](Cc2ccccc2)NC(=O)[C@H]([C@@H](C)O)NC(=O)[C@H]([C@@H](C)O)NC(=O)[C@H](CCC(=O)O)NC(=O)[C@H](CC(C)C)NC(=O)[C@H](Cc2c[nH]cn2)NC(=O)[C@H]([C@@H](C)O)NC(=O)[C@H](CCC(N)=O)NC(=O)CNC(=O)[C@H]2CCCN2C(=O)[C@@H](CCC(N)=O)NC(=O)[C@H]([C@@H](C)O)NC(=O)[C@H](C(C)C)NC(=O)[C@H](CCCNC(=N)N)NC1=O` [compound 129], the Ki was determined as 11100 nM.

Still in this test, the particulars now being: FP inhibition constant normalized to WT value.
Consider `CC(C)C[C@@H]1NC(=O)[C@H](Cc2c[nH]cn2)NC(=O)[C@H]([C@@H](C)O)NC(=O)[C@H](CCC(N)=O)NC(=O)CNC(=O)[C@H]2CCCN2C(=O)[C@H](CCC(N)=O)NC(=O)[C@H]([C@@H](C)O)NC(=O)[C@H](C(C)C)NC(=O)[C@H](CCCNC(=N)N)NC(=O)[C@H](CCCNC(=N)N)NC(=O)[C@H]([C@@H](C)O)NC(=O)[C@H](CCCCN)NC(=O)[C@@H]2CCCN2C(=O)[C@H]([C@@H](C)O)NC(=O)CNC(=O)[C@H](CC(=O)O)NC(=O)CNC(=O)[C@H]([C@@H](C)O)NC(=O)[C@H](Cc2ccccc2)NC(=O)[C@H]([C@@H](C)O)NC(=O)[C@H]([C@@H](C)O)NC(=O)[C@H](CCC(=O)O)NC1=O` [compound 41] (cyclo(THLETTFTGDGTPKTRRVTQ[dP]GQ)), for which the “Relative Ki (Ki mut/Ki WT)” value is on record as 1.17.

In the case of `CC[C@H](C)[C@@H]1NC(=O)[C@H]([C@@H](C)O)NC(=O)[C@H](CCCCN)NC(=O)[C@@H]2CCCN2C(=O)[C@H]([C@@H](C)O)NC(=O)CNC(=O)[C@H](CC(=O)O)NC(=O)CNC(=O)[C@H]([C@@H](C)O)NC(=O)[C@H](Cc2ccccc2)NC(=O)[C@H]([C@@H](C)O)NC(=O)[C@H]([C@@H](C)O)NC(=O)[C@H](CCC(=O)O)NC(=O)[C@H](CC(C)C)NC(=O)[C@H](Cc2ccc(O)cc2)NC(=O)[C@H]([C@@H](C)O)NC(=O)[C@H](CCC(N)=O)NC(=O)CNC(=O)[C@H]2CCCN2C(=O)[C@H](CCC(N)=O)NC(=O)[C@H]([C@@H](C)O)NC(=O)[C@H](C(C)C)NC(=O)[C@H](CCCNC(=N)N)NC1=O` [compound 26] (cyclo(TYLETTFTGDGTPKTIRVTQ[dP]GQ)), the “Relative Ki (Ki mut/Ki WT)” value is recorded as 0.79.

For the compound `CC(C)C[C@@H]1NC(=O)[C@H](Cc2c[nH]cn2)NC(=O)[C@H]([C@@H](C)O)NC(=O)[C@H](CCC(N)=O)NC(=O)CNC(=O)[C@H]2CCCN2C(=O)[C@H](CCC(N)=O)NC(=O)[C@H]([C@@H](C)O)NC(=O)[C@H](C(C)C)NC(=O)[C@H](CCCNC(=N)N)NC(=O)[C@H](Cc2ccc(O)cc2)NC(=O)[C@H]([C@@H](C)O)NC(=O)[C@H](CCCCN)NC(=O)[C@@H]2CCCN2C(=O)[C@H]([C@@H](C)O)NC(=O)CNC(=O)[C@H](CC(=O)O)NC(=O)CNC(=O)[C@H]([C@@H](C)O)NC(=O)[C@H](Cc2ccccc2)NC(=O)[C@H]([C@@H](C)O)NC(=O)[C@H]([C@@H](C)O)NC(=O)[C@H](CCC(=O)O)NC1=O` [compound 42] (cyclo(THLETTFTGDGTPKTYRVTQ[dP]GQ)), the “Relative Ki (Ki mut/Ki WT)” value is 1.07.
